The source of these data is ChEMBL document CHEMBL5465560, “Selectivity Literature for EUbOPEN Chemogenomic Library” (2024).

Assay [1] deals with Mitogen-activated protein kinase kinase kinase kinase 5 (Homo sapiens) (UniProt Q9Y4K4). The following applies: at 10 µM.
For assay [2], the target named is Tyrosine-protein kinase receptor Tie-1 (Homo sapiens) (UniProt P35590). Nature of the assay: Selectivity interaction (KinomeScan (DiscoverX)) EUB0000699a TIE1. The following applies: at 10 µM.
The target of assay [3] is T1, Serine/threonine-protein kinase TAO3 (Homo sapiens) (UniProt Q9H2K8).
T1 sequence (whole entry): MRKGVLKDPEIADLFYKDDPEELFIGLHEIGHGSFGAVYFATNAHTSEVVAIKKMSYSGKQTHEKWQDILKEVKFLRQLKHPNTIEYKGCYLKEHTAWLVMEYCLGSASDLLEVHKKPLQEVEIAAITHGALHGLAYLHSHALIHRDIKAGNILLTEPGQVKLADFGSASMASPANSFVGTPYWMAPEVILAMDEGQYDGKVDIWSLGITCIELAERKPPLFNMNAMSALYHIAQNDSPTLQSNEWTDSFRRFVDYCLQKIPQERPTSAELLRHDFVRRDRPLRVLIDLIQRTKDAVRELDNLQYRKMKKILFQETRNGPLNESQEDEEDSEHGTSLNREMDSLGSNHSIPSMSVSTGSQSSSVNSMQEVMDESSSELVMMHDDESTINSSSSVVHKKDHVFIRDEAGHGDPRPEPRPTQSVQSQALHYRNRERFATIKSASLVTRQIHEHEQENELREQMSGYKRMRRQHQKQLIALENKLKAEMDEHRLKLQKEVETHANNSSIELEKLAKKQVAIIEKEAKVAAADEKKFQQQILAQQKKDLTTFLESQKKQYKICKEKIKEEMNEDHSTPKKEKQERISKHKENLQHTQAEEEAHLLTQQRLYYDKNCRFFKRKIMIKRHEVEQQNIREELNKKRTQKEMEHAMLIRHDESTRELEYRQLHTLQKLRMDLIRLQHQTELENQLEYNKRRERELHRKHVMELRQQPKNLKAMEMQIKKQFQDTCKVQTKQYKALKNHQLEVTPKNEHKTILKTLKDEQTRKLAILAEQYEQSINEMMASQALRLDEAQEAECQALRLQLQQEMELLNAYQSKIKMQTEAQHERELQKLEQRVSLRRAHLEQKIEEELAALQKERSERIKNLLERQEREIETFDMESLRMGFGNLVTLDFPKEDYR
The assay can be described thus: Selectivity interaction (KinomeScan (DiscoverX)) EUB0000092b TAOK3. The following applies: at 10 µM.

Assay [4] addresses Rho-associated protein kinase 2 (Homo sapiens, UniProt O75116). Nature of the assay: Selectivity interaction (KinomeScan (DiscoverX)) EUB0000655a ROCK2. The following applies: at 10 µM.
Assay [5] deals with Bromodomain-containing protein 4 (Homo sapiens, UniProt O60885). The assay can be described thus: Selectivity interaction (Bromodomain panel (DSF asssay)) EUB0000270b BRD4.
Assay [6] deals with Tyrosine-protein kinase ABL2 (Homo sapiens, UniProt P42684). Nature of the assay: Selectivity interaction (KinomeScan (DiscoverX)) EUB0000045b ABL2.
Tyrosine-protein kinase ABL2, sequence (P42684 whole entry): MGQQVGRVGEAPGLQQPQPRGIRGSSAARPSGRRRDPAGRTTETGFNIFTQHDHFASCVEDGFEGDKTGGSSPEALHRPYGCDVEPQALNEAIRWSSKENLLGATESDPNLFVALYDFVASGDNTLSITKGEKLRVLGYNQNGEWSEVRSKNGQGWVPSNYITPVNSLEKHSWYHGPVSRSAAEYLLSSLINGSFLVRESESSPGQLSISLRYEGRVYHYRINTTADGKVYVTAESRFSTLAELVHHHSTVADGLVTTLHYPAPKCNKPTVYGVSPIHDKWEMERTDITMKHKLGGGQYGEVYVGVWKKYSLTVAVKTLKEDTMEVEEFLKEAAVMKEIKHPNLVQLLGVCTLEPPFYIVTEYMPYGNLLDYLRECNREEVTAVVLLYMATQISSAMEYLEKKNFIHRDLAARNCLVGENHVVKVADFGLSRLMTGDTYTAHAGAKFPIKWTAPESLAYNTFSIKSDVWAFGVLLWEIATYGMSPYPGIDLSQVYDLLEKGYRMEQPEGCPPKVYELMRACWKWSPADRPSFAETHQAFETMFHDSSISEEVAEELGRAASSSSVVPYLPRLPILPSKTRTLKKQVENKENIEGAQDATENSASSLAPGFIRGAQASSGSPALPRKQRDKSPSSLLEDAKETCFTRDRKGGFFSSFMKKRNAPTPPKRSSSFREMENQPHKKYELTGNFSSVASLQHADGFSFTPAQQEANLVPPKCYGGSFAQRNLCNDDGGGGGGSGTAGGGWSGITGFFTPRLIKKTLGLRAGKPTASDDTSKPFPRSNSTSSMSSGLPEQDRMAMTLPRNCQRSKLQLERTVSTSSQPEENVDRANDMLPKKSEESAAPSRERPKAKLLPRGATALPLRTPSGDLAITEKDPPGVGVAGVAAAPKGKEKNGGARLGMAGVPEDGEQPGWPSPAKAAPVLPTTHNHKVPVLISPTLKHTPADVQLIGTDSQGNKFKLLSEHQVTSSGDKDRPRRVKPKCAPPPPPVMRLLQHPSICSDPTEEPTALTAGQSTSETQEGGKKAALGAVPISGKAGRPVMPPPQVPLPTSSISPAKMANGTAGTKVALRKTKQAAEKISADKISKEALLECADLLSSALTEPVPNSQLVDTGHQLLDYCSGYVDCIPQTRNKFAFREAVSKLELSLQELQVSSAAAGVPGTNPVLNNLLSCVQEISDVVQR
The target in assay [7] is Macrophage-stimulating protein receptor (Homo sapiens, UniProt Q04912). Nature of the assay: Selectivity interaction (Kinase panel (Z-LYTE Assay)) EUB0001632a MST1R. The following applies: at 10 µM.
In assay [8] the test system is Tyrosine-protein kinase ABL1 (Homo sapiens), P00519 [E255K]. Nature of the assay: (§1) Selectivity interaction (SelectScreen profiling (Invitrogen)) EUB0000607a ABL1. The following applies: at 2 µM.
Assay [9] has as its system Tyrosine-protein kinase ABL1 (Homo sapiens), P00519 [G250E]. The description is as §1. The following applies: at 2 µM.
In assay [10] the test system is Tyrosine-protein kinase ABL1 (Homo sapiens), P00519 [T315I]. The description is as §1. The following applies: at 2 µM.
Assay [11] has as its target Tyrosine-protein kinase ABL1 (Homo sapiens, UniProt P00519). The assay is described as §1. The following applies: at 2 µM.
In assay [12] the target is T2, Serine/threonine-protein kinase Nek9 (Homo sapiens) (UniProt Q8TD19).
T2 sequence (whole entry): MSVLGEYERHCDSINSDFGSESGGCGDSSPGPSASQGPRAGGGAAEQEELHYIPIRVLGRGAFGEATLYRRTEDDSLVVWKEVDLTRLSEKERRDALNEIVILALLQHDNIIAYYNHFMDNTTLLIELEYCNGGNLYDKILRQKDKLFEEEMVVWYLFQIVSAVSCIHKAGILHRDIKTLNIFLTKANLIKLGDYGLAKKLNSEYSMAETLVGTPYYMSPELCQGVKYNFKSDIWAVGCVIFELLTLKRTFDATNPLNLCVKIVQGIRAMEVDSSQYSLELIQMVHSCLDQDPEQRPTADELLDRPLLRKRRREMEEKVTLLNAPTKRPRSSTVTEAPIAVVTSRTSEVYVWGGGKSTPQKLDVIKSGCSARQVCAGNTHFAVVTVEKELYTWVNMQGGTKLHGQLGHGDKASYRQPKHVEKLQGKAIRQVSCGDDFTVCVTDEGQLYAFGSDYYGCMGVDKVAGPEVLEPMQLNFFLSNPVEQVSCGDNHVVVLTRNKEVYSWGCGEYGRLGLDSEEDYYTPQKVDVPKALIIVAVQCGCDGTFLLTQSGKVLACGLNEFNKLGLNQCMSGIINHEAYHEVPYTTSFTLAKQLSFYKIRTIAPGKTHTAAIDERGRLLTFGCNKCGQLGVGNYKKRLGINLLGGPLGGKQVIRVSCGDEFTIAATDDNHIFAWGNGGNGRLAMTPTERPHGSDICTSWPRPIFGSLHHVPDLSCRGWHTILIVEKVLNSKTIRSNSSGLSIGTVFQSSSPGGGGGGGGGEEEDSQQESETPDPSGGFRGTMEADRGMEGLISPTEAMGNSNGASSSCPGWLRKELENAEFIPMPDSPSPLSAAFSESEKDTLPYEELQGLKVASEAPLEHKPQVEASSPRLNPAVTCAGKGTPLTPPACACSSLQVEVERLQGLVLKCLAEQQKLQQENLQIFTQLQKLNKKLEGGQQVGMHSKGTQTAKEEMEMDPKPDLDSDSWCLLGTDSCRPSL
The assay can be described thus: Selectivity interaction (ActivX KiNativ screen (kinase selectivity in THP-1 cell lysates)) EUB0000639a NEK9. The assay is classed as subcellular. The following applies: lysate.

Assay [13] concerns the target Serine/threonine-protein kinase PRP4 homolog (Homo sapiens) (UniProt Q13523). The assay can be described thus: Selectivity interaction (ActivX KiNativ screen (kinase selectivity in THP-1 cell lysates)) EUB0000639a PRPF4. The assay is classed as subcellular. The following applies: lysate, at 5 µM.
Assay [14] concerns the target Cyclin-dependent kinase 15 (Homo sapiens) (UniProt Q96Q40). Nature of the assay: Selectivity interaction (KinomeScan (DiscoverX)) EUB0001619a CDK15. The following applies: at 1 µM.
The target of assay [15] is Cyclin-dependent kinase 5 (Homo sapiens, UniProt Q00535). The assay can be described thus: Selectivity interaction (Kinase panel (KiNativ target engagement assay in Jurkat cells)) EUB0001635a CDK5. The assay is classed as cell-based. The following applies: at 1 µM.
Cyclin-dependent kinase 5, sequence (Q00535 whole entry, looked up): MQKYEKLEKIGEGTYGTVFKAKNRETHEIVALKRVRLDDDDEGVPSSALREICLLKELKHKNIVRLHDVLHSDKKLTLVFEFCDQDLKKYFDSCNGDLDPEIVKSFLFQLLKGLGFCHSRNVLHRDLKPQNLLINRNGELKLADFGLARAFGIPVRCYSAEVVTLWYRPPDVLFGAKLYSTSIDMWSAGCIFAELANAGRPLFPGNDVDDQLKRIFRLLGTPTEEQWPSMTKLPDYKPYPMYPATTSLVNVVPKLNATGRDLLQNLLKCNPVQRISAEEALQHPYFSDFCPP

Rho-associated protein kinase 2, sequence (O75116 whole entry, looked up): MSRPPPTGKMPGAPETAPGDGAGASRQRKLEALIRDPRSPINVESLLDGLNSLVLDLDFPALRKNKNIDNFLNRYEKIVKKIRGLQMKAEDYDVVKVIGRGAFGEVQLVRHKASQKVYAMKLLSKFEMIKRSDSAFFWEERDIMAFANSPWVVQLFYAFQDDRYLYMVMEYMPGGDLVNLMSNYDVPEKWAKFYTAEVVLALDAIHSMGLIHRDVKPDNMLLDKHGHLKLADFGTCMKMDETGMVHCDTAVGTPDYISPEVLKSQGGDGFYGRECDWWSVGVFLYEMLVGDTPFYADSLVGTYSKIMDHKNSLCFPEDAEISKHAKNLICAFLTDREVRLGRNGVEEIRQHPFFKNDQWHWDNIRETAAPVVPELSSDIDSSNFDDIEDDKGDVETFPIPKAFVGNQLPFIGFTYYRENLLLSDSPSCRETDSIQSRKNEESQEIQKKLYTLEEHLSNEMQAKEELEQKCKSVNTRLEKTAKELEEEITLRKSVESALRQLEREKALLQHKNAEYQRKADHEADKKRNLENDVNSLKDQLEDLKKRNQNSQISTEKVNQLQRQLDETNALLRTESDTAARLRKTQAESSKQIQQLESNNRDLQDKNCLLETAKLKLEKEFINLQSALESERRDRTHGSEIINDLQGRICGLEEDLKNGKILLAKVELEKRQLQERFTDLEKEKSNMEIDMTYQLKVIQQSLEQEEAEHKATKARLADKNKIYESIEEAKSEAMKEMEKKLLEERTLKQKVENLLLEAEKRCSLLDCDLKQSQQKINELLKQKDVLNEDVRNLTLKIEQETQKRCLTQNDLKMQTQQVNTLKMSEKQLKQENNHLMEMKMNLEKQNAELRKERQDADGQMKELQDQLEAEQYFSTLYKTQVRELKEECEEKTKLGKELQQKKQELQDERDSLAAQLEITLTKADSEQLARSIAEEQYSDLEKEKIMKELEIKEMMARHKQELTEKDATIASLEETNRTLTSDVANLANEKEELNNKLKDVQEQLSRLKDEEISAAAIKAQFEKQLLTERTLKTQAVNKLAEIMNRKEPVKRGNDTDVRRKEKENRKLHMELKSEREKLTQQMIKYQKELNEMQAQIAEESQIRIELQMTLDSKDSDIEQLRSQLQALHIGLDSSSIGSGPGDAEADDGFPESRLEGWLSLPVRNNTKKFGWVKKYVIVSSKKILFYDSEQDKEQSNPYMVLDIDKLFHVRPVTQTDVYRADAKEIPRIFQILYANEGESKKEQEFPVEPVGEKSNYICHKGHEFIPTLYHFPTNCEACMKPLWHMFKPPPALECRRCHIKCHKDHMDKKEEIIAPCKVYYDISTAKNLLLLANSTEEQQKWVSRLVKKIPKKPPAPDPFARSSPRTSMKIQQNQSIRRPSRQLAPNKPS
Serine/threonine-protein kinase PRP4 homolog (Homo sapiens), sequence (Q13523 whole entry): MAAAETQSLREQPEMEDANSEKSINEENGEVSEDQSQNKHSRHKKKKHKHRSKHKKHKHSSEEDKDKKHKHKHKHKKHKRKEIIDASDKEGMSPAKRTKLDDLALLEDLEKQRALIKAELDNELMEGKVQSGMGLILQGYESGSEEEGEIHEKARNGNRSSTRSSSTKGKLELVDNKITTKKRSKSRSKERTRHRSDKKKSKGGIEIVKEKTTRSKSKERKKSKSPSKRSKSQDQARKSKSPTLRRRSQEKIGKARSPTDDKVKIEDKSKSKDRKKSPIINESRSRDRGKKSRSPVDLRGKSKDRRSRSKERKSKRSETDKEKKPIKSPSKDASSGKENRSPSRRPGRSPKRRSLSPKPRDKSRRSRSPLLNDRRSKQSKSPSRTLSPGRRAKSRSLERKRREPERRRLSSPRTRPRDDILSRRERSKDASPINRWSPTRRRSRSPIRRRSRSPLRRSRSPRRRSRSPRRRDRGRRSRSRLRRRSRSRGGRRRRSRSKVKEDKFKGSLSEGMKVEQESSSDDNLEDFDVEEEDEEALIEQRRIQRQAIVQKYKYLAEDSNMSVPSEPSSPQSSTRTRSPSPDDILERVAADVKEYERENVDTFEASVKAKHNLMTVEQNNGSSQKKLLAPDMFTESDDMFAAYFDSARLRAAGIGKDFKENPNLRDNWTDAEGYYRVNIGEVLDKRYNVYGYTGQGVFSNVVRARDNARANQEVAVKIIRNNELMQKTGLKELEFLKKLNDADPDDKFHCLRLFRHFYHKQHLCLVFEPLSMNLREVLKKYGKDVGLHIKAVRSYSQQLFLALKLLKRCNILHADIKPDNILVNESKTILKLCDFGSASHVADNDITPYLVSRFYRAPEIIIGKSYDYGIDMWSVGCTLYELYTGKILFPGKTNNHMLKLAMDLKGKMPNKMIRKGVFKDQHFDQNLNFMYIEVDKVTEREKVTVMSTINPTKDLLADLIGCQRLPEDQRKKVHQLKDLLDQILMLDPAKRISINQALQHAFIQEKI
Tyrosine-protein kinase receptor Tie-1 (Homo sapiens), sequence (P35590 whole entry): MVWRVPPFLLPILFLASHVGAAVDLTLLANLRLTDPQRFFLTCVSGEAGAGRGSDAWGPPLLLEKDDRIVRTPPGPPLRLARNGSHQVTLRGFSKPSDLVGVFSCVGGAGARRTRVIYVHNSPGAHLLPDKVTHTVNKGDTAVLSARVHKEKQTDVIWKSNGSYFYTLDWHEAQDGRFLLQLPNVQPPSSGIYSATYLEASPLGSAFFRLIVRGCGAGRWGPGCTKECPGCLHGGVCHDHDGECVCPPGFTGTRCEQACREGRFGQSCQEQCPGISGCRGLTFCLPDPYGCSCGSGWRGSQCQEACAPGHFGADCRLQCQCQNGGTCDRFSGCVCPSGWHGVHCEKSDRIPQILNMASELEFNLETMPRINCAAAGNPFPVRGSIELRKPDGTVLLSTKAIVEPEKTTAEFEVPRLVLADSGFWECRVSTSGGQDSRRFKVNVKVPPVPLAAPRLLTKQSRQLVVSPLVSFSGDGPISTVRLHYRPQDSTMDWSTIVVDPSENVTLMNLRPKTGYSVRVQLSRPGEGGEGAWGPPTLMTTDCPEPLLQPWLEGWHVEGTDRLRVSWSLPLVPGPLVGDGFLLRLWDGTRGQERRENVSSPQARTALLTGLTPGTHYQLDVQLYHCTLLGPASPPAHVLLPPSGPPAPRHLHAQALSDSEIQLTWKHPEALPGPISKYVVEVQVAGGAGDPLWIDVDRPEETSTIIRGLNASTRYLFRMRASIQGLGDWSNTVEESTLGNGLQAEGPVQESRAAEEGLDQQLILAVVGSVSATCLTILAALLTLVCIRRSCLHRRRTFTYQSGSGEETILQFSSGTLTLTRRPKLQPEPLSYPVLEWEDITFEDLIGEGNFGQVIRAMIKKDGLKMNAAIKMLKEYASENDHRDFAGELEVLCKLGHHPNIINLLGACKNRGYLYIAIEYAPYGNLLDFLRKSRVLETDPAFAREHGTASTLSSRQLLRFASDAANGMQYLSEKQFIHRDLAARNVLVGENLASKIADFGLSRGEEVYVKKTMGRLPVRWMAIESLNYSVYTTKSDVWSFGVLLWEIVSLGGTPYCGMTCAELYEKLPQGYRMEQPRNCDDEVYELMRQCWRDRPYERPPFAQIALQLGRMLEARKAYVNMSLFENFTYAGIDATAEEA

As to `Cc1cc([C@@H](C)Nc2ccccc2C(=O)O)c2nc(N3CCOCC3)cc(=O)n2c1` [AZD-6482], the % of control in [1] turned out to be 96%. `CCN(CC)CCCCNc1ncc2cc(-c3cc(OC)cc(OC)c3)c(NC(=O)NC(C)(C)C)nc2n1`: the % of control in [2] was 12%. `CCC(=O)N1CCN(c2ccc(-n3c(=O)ccc4cnc5ccc(-c6cnc7ccccc7c6)cc5c43)cc2C(F)(F)F)CC1`: the % of control in [3] came to 76%. Turning to `CN(C)CCOc1ccc(-c2nc(-c3ccncc3)c(-c3ccc4c(c3)CC/C4=N\O)[nH]2)cc1`, the % of control in assay [4] stood at 47%. In [5], `Cc1cc(CN)cc(C)c1-c1ncn(C)c1-c1cncn1C` gave a dTM of -1.68 K. Turning to `C=CC(=O)Nc1cc(-n2c(=O)ccc3cnc4ccc(-c5ccc(NS(C)(=O)=O)cc5)cc4c32)ccc1C`, the % of control in [6] (at 1 µM) and in [6] (at 10 µM) was 100% in each case. With `Cn1cc(-n2cnc3c(NCc4nc5cc(Cl)c(Cl)cc5[nH]4)nc(N4CCOCC4)nc32)cn1`, in assay [7], the % of control is -2.62%. Turning to `CNC(=O)Nc1ccc(-c2nc(N3CC4CCC(C3)O4)c3cnn(C4CCC5(CC4)OCCO5)c3n2)cc1`, the % of inhibition in assay [8] was 5%; in [9], 3%; in assay [10] it was 0%; in assay [11] it was 4%. For `CC[C@@H]1[C@H](F)C(=O)N[C@@H]1COc1nccc2cc(C(N)=O)c(OC)cc12` [ZIMLOVISERTIB], the % of inhibition in assay [12] (at 0.01 µM) was 0.3%; in [12] (at 0.04 µM) it was -3.6%; in assay [12] (at 0.2 µM), -11.2%; in assay [12] (at 1 µM), 7.7%; in assay [12] (at 5 µM), 0.4%; in [13], 88.3%. With `N#Cc1cccc(-c2c[nH]c3ncnc(N4CCOCC4)c23)c1`, the % of control in assay [14] stood at 100%.

For the compound `C=CC(=O)Nc1ccc(C(=O)Nc2[nH]nc3c2CN(C(=O)N[C@H](CN(C)C)c2ccccc2)C3(C)C)cc1`, the % of engagement in [15] (Selectivity number of off-targets 0.0, Selectivity number of targets 233.0, Source Knowledge https://www.sciencedirect.com/science/article/pii/S2451945619300674?via%3Dihub) was -1.7%; in [15], 0.4%.
